According to publication PMC7699381, “Rare-Earth Metal Complexes of the Antibacterial Drug Oxolinic Acid: Synthesis, Characterization, DNA/Protein Binding and Cytotoxicity Studies” (Molecules, 2020):

Assays:
[1] = tested on: MDA-MB 231 (human breast adenocarcinoma); assay: MTS cytotoxicity assay, MDA-MB 231 cells; format: cell-based
Description: (§1) For the evaluation of the cytotoxic effects of the complexes and ligand two human cancer cell lines were used, namely MDA-MB 231 (human breast adenocarcinoma) and LoVo (human colon adenocarcinoma); a normal cell line, human umbilical vein endothelial cells (HUVEC), was used as a reference. […] After 24 h and 48 h, respectively, cell viability was evaluated through MTS assay (data shown in Figures S16–S18) and the IC50 values were calculated (Table 5). The cytotoxicity assay is based on the ability of metabolically active cells to reduce MTS, a yellow tetrazolium salt, to the colored formazan, soluble in the culture medium; the concentration of formazan can be spectrophotometrically determined. […] PES is a cationic dye with high chemical stability that binds to MTS and forms a stable solution. […] The reduced MTS to formazan was spectrophotometrically measured at λ = 492 nm. The test was run on two cancer cell lines, LoVo and MDA-MB 231, and on a normal cell line, HUVEC. […] Cell viability data were obtained in triplicate (n = 3) and expressed as mean values ± standard deviations (SD). […] All assays were performed in 96-well microtiter plates with flat bottom (Falcon), using CellTiter 96 Aqueous One Solution Cell Proliferation Assay (Promega), an MTS-based colorimetric assay. The formazan was spectrophotometrically measured using the Tecan GENios Spectrophotometer.

[2] = tested on: HUVEC (normal human umbilical vein endothelial cells); assay: MTS cytotoxicity assay, HUVEC normal cells; format: cell-based; conditions: 48 h of incubation
Description: as §1

[3] = tested on: LoVo (human colon adenocarcinoma); assay: MTS cytotoxicity assay, LoVo cells; format: cell-based; conditions: 48 h of incubation
Description: as §1

[4] = target: T1, Human serum albumin (HSA) (Homo sapiens, UniProt P02768)
T1 sequence (P02768 25-609): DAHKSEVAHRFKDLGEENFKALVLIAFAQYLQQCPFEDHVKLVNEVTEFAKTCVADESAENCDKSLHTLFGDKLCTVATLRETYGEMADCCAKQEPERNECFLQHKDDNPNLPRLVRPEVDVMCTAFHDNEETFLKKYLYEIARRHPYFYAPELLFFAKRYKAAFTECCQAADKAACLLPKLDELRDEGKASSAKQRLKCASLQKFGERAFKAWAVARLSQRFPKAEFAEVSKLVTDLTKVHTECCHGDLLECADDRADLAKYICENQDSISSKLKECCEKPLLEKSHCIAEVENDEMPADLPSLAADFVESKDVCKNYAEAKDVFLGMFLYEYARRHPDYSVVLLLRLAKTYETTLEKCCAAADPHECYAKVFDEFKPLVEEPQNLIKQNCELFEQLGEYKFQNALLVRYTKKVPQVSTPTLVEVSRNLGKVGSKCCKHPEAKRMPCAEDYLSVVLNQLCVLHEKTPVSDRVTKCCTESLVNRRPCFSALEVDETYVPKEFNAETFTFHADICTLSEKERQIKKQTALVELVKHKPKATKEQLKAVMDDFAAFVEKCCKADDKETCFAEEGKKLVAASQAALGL

[5] = target: T1, Human serum albumin (HSA); assay: Fluorescence quenching of human serum albumin; conditions: 298 K
[6] = tested on: EB-DNA system (CT-DNA); assay: Competitive binding assay with ethidium bromide (EB) through fluorescence spectroscopy; set-up: species or system calf; conditions: 10 µM CT-DNA, 2 µM EB; for Ksv (Stern-Volmer quenching constant, EB-DNA system): 0–40 µM compound, λex 500 nm
Text: The manner of binding to the DNA macromolecule can be investigated through competitive binding studies with ethidium bromide (3,8-diamino-5-ethyl-6-phenylphenanthridinium bromide), a fluorescent dye; due to its aromatic ring, it can intercalate between two adjacent base pairs in the DNA structure and form a complex which emits fluorescent light; displacing EB results in a quenching effect. The Stern-Volmer constant (KSV) and the dissociation constant (K50) have been calculated from the resulting data.
Competitive binding studies were carried out on a Jasco FP 6500 fluorometer at room temperature, using quartz cells of 1 cm path-length. The fluorescence spectra were recorded on 1.6 mL samples containing 10 µM CT-DNA and 2 µM EB in the absence and presence of increasing amounts (0–40 µM with an increment of 5 µM) of complexes and free ligands, respectively, after being kept in contact for 10 min at room temperature, under continuous stirring and in the dark. The excitation wavelength used was 500 nm and the spectra was recorded in the 520–800 nm range. Two control samples were used, the first one containing DMSO, DNA and EB and the second one just the complex.
Data from the assay can be interpreted using the classical Stern-Volmer equation (Equation (3)):(3) F0/F=1+ KSV·[Q] where F0 and F are the fluorescence intensities of the EB-DNA samples in the absence and presence of the tested compounds and [Q] is the concentration of the compound; KSV is the Stern-Volmer constant and can be calculated from the plot of F0/F vs. [Q] as the slope.
The ratio of binding relative to the control sample exposed only to DMSO was plotted against the logarithm of concentration. The data points were fitted using the modified Hill function with offset (Origin®) (Equation (4)):(4) y=A1+(A2−A1)×x^n/K50^n+x^n where y is the ratio of binding (F/F0) and x is the concentration, A1 is the minimum of y values, A2 is the maximum of y values, K50 is the concentration corresponding to 50% binding and n is the Hill coefficient.

[7] = target: T2, Apo-transferrin (apo-Tf) (Homo sapiens, UniProt P02787); assay: Fluorescence quenching of apo-transferrin; format: binding; conditions: for Ksv (Stern-Volmer constant), apo-Tf: 0–8 µM compound, pH 7.4
T2 construct: purchased Sigma Aldrich Chemical Co. (Schnelldorf, Germany)
T2 sequence (P02787 20-698): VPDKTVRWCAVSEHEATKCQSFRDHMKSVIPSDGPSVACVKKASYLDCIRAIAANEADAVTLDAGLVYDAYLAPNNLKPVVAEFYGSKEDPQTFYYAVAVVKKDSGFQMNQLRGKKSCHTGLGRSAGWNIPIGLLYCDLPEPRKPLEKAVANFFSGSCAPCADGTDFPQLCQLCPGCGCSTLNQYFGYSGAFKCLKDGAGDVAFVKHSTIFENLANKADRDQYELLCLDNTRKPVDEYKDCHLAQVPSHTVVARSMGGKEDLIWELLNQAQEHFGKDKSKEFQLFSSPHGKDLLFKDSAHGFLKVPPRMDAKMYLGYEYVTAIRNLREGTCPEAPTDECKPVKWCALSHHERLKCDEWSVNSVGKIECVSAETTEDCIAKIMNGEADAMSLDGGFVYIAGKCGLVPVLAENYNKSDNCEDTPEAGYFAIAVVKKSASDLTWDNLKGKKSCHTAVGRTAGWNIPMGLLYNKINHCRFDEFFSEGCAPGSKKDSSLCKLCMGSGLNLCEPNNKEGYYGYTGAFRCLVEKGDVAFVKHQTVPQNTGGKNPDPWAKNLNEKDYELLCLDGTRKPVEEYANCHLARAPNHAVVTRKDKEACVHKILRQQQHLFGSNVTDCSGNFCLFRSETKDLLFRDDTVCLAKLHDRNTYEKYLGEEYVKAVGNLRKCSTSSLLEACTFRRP

COc1cccc2c1C(=O)c1c(O)c3c(c(O)c1C2=O)C[C@@](O)(C(=O)CO)C[C@@H]3O[C@H]1C[C@H](N)[C@H](O)[C@H](C)O1 [ADR, adriamycin, reference compound]
IC50 ([1]; Homo sapiens, MDA-MB-231, 48 h of incubation): 7.85 ± 0.7 µM

N.N.[Cl][Pt][Cl] [Cis-Pt, Cisplatin, reference compound]
IC50 [2]: 28.5 ± 6.28 µM
IC50 [3]: 40.1 ± 13.9 µM

CCn1cc(C(=O)[O][Y]([OH])[O]C(=O)c2cn(CC)c3cc4c(cc3c2=O)OCO4)c(=O)c2cc3c(cc21)OCO3.O [Y oxo, [Y(oxo)(OH)(H2O)]]
Kd [4]: 6.3 ± 2.47 µM
Ka (association binding constant), HSA [5]: (2.04 ± 0.74) × 10^5 M^−1
n (Hill Coefficient), HSA [5]: 1.52 ± 0.47
n (Number of Binding Sites), HSA [5]: 1.44 ± 0.03
Ksv (Stern-Volmer constant), HSA ([5]; 2.5 µM HSA, 0–8 µM compound, pH 7.4): (10.53 ± 0.95) × 10^4 M^−1
Kq (bimolecular quenching constant), HSA ([5]; from KSV = Kq τ0): 1.053e+13 M⁻¹ s⁻¹
fa (fraction of fluorophore accessible to the quencher), HSA ([5]; modified Stern-Volmer): 1.07 ± 0.05
IC50 ([1]; 48 h of incubation): 33.2 ± 14.9 µM
IC50 [2]: > 200 µM
Ksv (Stern-Volmer quenching constant, EB-DNA system) [6]: 8.38 (±0.29) × 10^3
Ksv (Stern-Volmer quenching constant, EB-DNA system) ([6]; listed as Y-oxo): (8.38 ± 0.29) × 10^3
K50 (EB Displacement Assay) ([6]; concentration corresponding to 50% binding): 28.07 ± 4.44 µM
quenching effect on apo-Tf fluorescence peak ([7]; 1 µM apo-Tf, compound up to 8 µM, λex 295 nm): 35%
Ka (association binding constant), apo-Tf ([7]; 298 K): 4.40(±1.09) × 10^4 M^−1
n (Hill Coefficient), apo-Tf ([7]; 298 K): 1.58 ± 0.23
n (Number of Binding Sites), apo-Tf ([7]; 298 K): 0.94 ± 0.01
Ksv (Stern-Volmer constant), apo-Tf ([7]; 298 K, 1 µM apo-Tf): 6.52 (± 0.56) × 10^4 M^−1
Ksv (Stern-Volmer constant), apo-Tf ([7]; 298 K, 1 µM apo-Tf, listed as Y-oxo): (6.52 ± 0.56) × 10^4 M^−1
Kq (bimolecular quenching constant), apo-Tf ([7]; 298 K, from KSV = Kq τ0): 6.52e+12 M⁻¹ s⁻¹
fa (fraction of fluorophore accessible to the quencher), apo-Tf ([7]; 298 K, modified Stern-Volmer): 1.15 ± 0.07
Ka (association binding constant), apo-Tf ([7]; 298 K, listed as Y-oxo): (4.40 ± 1.09) × 10^4 M^−1
Kd ([7]; 298 K, read-out: Kd, apo-Tf): 8.34 ± 1.71 µM
IC50 [3]: 90.4 ± 9.3 µM
